Measured values reported in US20250040914A1, “SYSTEMS AND METHODS FOR FOCUSED ULTRASOUND-ENABLED LIQUID BIOPSY” (Washington University, priority 2021, published 2025).

Assay: FUS-BBBO delivery of Evans Blue to the mouse brain under closed-loop feedback control (fluorescence imaging of brain slices)
Format: in vivo, Swiss mice
Conditions: for drug delivery area (average): area with fluorescence higher than 10 dB above background of brain tissue; for fluorescence intensity of the delivered Evans Blue, increase relative to the 0.5 dB group: brainstem ROI, 30 μL of 4% Evans Blue i.v. after FUS, 30 min after sonication
Method: 25 Swiss mice (8-10 weeks, ˜25 g body weight, female, Charles River Laboratory, Wilmington, MA, USA) were randomly assigned into five groups (n=5 for each group) to evaluate five different TCLs using the disclosed algorithm. Swiss mice (8-10 weeks, ˜25 g body weight, female, Charles River Laboratory, Wilmington, MA, USA) were housed in a room maintained at 22° C. and 55% relative humidity, with a 12-h/12-h light/dark cycle and access to standard laboratory chow and water. […] Four Swiss mice were selected to evaluate an existing closed-loop feedback control algorithm with the TCL defined based on the detection of sub-harmonics. During all experiments, mice were anesthetized with 1.5-2% isoflurane and stabilized using a stereotaxic apparatus (Kopf, Tujunga, CA, USA). A heating pad with a temperature kept at ˜38° C. was used to maintain the mouse's body temperature. Mice were prepared for FUS sonication by removing fur on top of the head with a depilatory cream (Nair, Church & Dwight Co., NJ, USA) and coupled to a water container using ultrasound gel. A catheter was placed into the tail vein for microbubbles and Evans blue injection.
A microbubble contrast agent (Definity, Lantheus Medical Imaging, North Billerica, MA) was diluted using sterile saline to a final concentration of approximately 8×10^8 microbubbles per mL. A bolus of diluted microbubble contrast agent (volume=30 μL) was injected intravenously into each mouse through a tail vein catheter. The injection was performed using a computer-controlled syringe pump (NE-1600; New Era Pump Systems Inc.). Microbubbles infusion was started 15 s before FUS sonication to allow microbubbles to flow through the tail vein catheter and reach the mouse brain. The infusion lasted until the end of sonication at a constant rate of 12.8 μL/min. All mice were treated by FUS with output pressure controlled in real-time using the disclosed PCD-based closed-loop feedback control algorithm. The treatment procedure followed a two-step process. A representative example of sonication sequence and detected cavitation level is illustrated in FIG. 20.
A baseline stable cavitation (SC) level was established for each mouse with dummy FUS sonication after injecting the microbubbles. FUS sonication was performed using a pulse repetition frequency of 2 Hz, a pulse length of 6.7 ms burst (i.e., duty cycle: 1.33%), and a sonication duration of 5 s. The output pressure of FUS was 0.2 MPa (all pressures reported were the peak negative pressures calibrated in water). This pressure was selected because it was the lowest pressure at which the microbubble cavitation signal was higher than the noise level without microbubble injection and lower than the pressures needed to induce BBB disruption. During the sonication by each FUS pulse, acoustic emission from microbubbles was recorded by the PCD transducer and processed by a Fast-Fourier transform (FFT) algorithm. SC level was calculated by summing the magnitude of the spectrum within a ±0.02 MHz bandwidth at the third harmonic (i.e., 4.5 MHz) of the FUS transducer. The third harmonic emission was chosen because it was at the center frequency of the PCD transducer. Ten PCD signals were acquired, and the average of SC levels calculated from these ten signals was used to define the baseline SC level.
After establishing the baseline SC level as described above, the mice were further subjected to FUS sonication using the FUS-BBBO with real-time feedback control disclosed herein. During FUS sonication with microbubbles infusion, cavitation was monitored by PCD in real-time, and a custom closed-loop feedback control algorithm was used to control the SC level to be at different TCLs defined to be 0.5 dB, 1 dB, 2 dB, 3 dB, or 4 dB above the baseline SC level. […]

drug delivery area (average) (TCL 0.5 dB): 9.6 mm^2
fluorescence intensity of the delivered Evans Blue, increase relative to the 0.5 dB group (TCL 1 dB above baseline SC level): 2.4 fold
fluorescence intensity of the delivered Evans Blue, increase relative to the 0.5 dB group (TCL 2 dB above baseline SC level): 5.3 fold
fluorescence intensity of the delivered Evans Blue, increase relative to the 0.5 dB group (TCL 3 dB above baseline SC level): 8.2 fold
drug delivery area, increase as TCL was raised from 0.5 dB to 3 dB (TCL 3 dB versus 0.5 dB): 11.7 fold
drug delivery area (average) (TCL 3 dB): 112.8 mm^2
fluorescence intensity and drug delivery area with respect to the values at a TCL of 3 dB (TCL 4 dB): slightly decreased
SMILES: Cc1cc(-c2ccc(/N=N/c3ccc4c(S(=O)(=O)O)cc(S(=O)(=O)O)c(N)c4c3O)c(C)c2)ccc1/N=N/c1ccc2c(S(=O)(=O)O)cc(S(=O)(=O)O)c(N)c2c1O [Evans Blue]
